Experimental data as given in US20240043404A1 (AbbVie Inc., priority 2009, published 2024).
Where two headings read alike, the source gives them in different places.

System: RS4;11 cells
Experiment: RS4;11 cell viability assay (CellTiter Glo);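 also: acute lymphoblastic leukemia line RS4,11, EC50 derived from percentage of viable cells after treatment relative to untreated controls, cell killing taken as a measure of Bcl-2 inhibition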
Assay type: cell-based, human
Details: Homo sapiens, read-out: RS4
[1] = RS4-11, 48 h, 50,000 cells per well, 10% human serum, 48 hours, 11 EC50 Values

Procedure: The acute lymphoblastic leukemia (ALL) cell line RS4;11 was used as the primary human cell line to assess the cellular activity of Bcl-2 selective agents in vitro and their efficacy in vivo.
Cell cytotoxicity EC50 values were assessed using CellTiter Glo (Promega) according to the manufacturer's recommendations. The EC50 values were determined as a percentage of viable cells following treatment compared to the untreated control cells.

SMILES	EC50 [1]	EC50 (RS4-11, Table 5, direct comparison Z=N with corresponding analogs Z=C, 11 EC50)
CC1(C)CCC(CN2CCN(c3ccc(C(=O)NS(=O)(=O)c4ccc(OCC5CCCC(=O)C5)c([N+](=O)[O-])c4)c(Oc4cnc5[nH]ccc5c4)c3)CC2)=C(c2ccc(Cl)cc2)C1 (stereo not shown) [Example 205, 4-(4-{[2-(4-chlorophenyl)-4,4-dimethylcyclohex-1-en-1-yl]methyl}piperazin-1-yl)-N-({3-nitro-4-[(3-oxocyclohexyl)methoxy]phenyl}sulfonyl)-2-(1H-pyrrolo[2,3-b]pyridin-5-yloxy)benzamide]	10.6 nM	
CN(C)CCCOc1ccc(CNc2ccc(S(=O)(=O)NC(=O)c3ccc(N4CCN(CC5=C(c6ccc(Cl)cc6)CC(C)(C)CC5)CC4)cc3Oc3cnc4[nH]ccc4c3)cc2[N+](=O)[O-])cc1 [Example 197, 4-(4-{[2-(4-chlorophenyl)-4,4-dimethylcyclohex-1-en-1-yl]methyl}piperazin-1-yl)-N-{[4-({4-[3-(dimethylamino)propoxy]benzyl}amino)-3-nitrophenyl]sulfonyl}-2-(1H-pyrrolo[2,3-b]pyridin-5-yloxy)benzamide]	12.5 nM	
CC1(C)CCC(CN2CCN(c3ccc(C(=O)NS(=O)(=O)c4cnc(OCC5CCC(N(C6CC6)C6COC6)CC5)c(Cl)c4)c(Oc4cnc5[nH]ccc5c4)c3)CC2)=C(c2ccc(Cl)cc2)C1 (stereo not shown) [Example 329, N-{[5-chloro-6-({4-[cyclopropyl(oxetan-3-yl)amino]cyclohexyl}methoxy)pyridin-3-yl]sulfonyl}-4-(4-{[2-(4-chlorophenyl)-4,4-dimethylcyclohex-1-en-1-yl]methyl}piperazin-1-yl)-2-(1H-pyrrolo[2,3-b]pyridin-5-yloxy)benzamide]	424 nM	
CC1(C)CCC(CN2CCN(c3ccc(C(=O)NS(=O)(=O)c4ccc(OCC5(C)CCOCC5)c([N+](=O)[O-])c4)c(Oc4cnc5[nH]ccc5c4)c3)CC2)=C(c2ccc(Cl)cc2)C1 [Example 221, 4-(4-{[2-(4-chlorophenyl)-4,4-dimethylcyclohex-1-en-1-yl]methyl}piperazin-1-yl)-N-({4-[(4-methyltetrahydro-2H-pyran-4-yl)methoxy]-3-nitrophenyl}sulfonyl)-2-(1H-pyrrolo[2,3-b]pyridin-5-yloxy)benzamide]	94.8 nM	
CC1(C)CCC(CN2CCN(c3ccc(C(=O)NS(=O)(=O)c4ccc(NCC5CN(S(C)(=O)=O)CCO5)c([N+](=O)[O-])c4)c(Oc4cnc5[nH]ccc5c4)c3)CC2)=C(c2ccc(Cl)cc2)C1 (stereo not shown) [Example 319, 4-(4-{[2-(4-chlorophenyl)-4,4-dimethylcyclohex-1-en-1-yl]methyl}piperazin-1-yl)-N-{[4-({[4-(methylsulfonyl)morpholin-2-yl]methyl}amino)-3-nitrophenyl]sulfonyl}-2-(1H-pyrrolo[2,3-b]pyridin-5-yloxy)benzamide]	4.5 nM	
CO[C@H]1CC[C@H](COc2ncc(S(=O)(=O)NC(=O)c3ccc(N4CCN(CC5=C(c6ccc(Cl)cc6)CC(C)(C)CC5)CC4)cc3Oc3cnc4[nH]ccc4c3)cc2C(F)(F)F)CC1 [Example 300, 4-(4-{[2-(4-chlorophenyl)-4,4-dimethylcyclohex-1-en-1-yl]methyl}piperazin-1-yl)-N-({6-[(trans-4-methoxycyclohexyl)methoxy]-5-(trifluoromethyl)pyridin-3-yl}sulfonyl)-2-(1H-pyrrolo[2,3-b]pyridin-5-yloxy)benzamide]	763 nM	
CC1(C)CCC(CN2CCN(c3ccc(C(=O)NS(=O)(=O)c4ccc(NCc5cccc(OC(F)(F)F)c5)c([N+](=O)[O-])c4)c(Oc4cnc5[nH]ccc5c4)c3)CC2)=C(c2ccc(Cl)cc2)C1 [Example 175, 4-(4-{[2-(4-chlorophenyl)-4,4-dimethylcyclohex-1-en-1-yl]methyl}piperazin-1-yl)-N-[(3-nitro-4-{[3-(trifluoromethoxy)benzyl]amino}phenyl)sulfonyl]-2-(1H-pyrrolo[2,3-b]pyridin-5-yloxy)benzamide]	> 1000 nM	
CC1(C)CCC(CN2CCN(c3ccc(C(=O)NS(=O)(=O)c4ccc(NC[C@@H]5CCCOC5)c([N+](=O)[O-])c4)c(Oc4ccc5[nH]ccc5c4)c3)CC2)=C(c2ccc(Cl)cc2)C1 [Example 21, 4-(4-{[2-(4-chlorophenyl)-4,4-dimethylcyclohex-1-en-1-yl]methyl}piperazin-1-yl)-2-(1H-indol-5-yloxy)-N-[(3-nitro-4-{[(3S)-tetrahydro-2H-pyran-3-ylmethyl]amino}phenyl)sulfonyl]benzamide]	62 nM	62 nM

The next lines start with the values.

EC50 [1]	EC50 (RS4-11, Table 5, direct comparison Z=N with corresponding analogs Z=C, 11 EC50)	SMILES
9 nM		CN(C)CC(=O)N1CC[C@@H](Nc2ccc(S(=O)(=O)NC(=O)c3ccc(N4CCN(CC5=C(c6ccc(Cl)cc6)CC(C)(C)CC5)CC4)cc3Oc3cnc4[nH]ccc4c3)cc2[N+](=O)[O-])C1 [Example 255, 4-(4-{[2-(4-chlorophenyl)-4,4-dimethylcyclohex-1-en-1-yl]methyl}piperazin-1-yl)-N-[(4-{[(3R)-1-(N,N-dimethylglycyl)pyrrolidin-3-yl]amino}-3-nitrophenyl)sulfonyl]-2-(1H-pyrrolo[2,3-b]pyridin-5-yloxy)benzamide]
807 nM		CC1(C)CCC(CN2CCN(c3ccc(C(=O)NS(=O)(=O)c4cnc(NC5CCN(C6CC6)CC5)c(Cl)c4)c(Oc4cnc5[nH]ccc5c4)c3)CC2)=C(c2ccc(Cl)cc2)C1 [Example 243, N-({5-chloro-6-[(1-cyclopropylpiperidin-4-yl)amino]pyridin-3-yl}sulfonyl)-4-(4-{[2-(4-chlorophenyl)-4,4-dimethylcyclohex-1-en-1-yl]methyl}piperazin-1-yl)-2-(1H-pyrrolo[2,3-b]pyridin-5-yloxy)benzamide]
212 nM		CC1(C)CCC(CN2CCN(c3ccc(C(=O)NS(=O)(=O)c4cnc(O[C@H]5CC[C@H](N6CCOCC6)CC5)c(Br)c4)c(Oc4cnc5[nH]ccc5c4)c3)CC2)=C(c2ccc(Cl)cc2)C1 [Example 124, Trans-N-({5-bromo-6-[(4-morpholin-4-ylcyclohexyl)oxy]pyridin-3-yl}sulfonyl)-4-(4-{[2-(4-chlorophenyl)-4,4-dimethylcyclohex-1-en-1-yl]methyl}piperazin-1-yl)-2-(1H-pyrrolo[2,3-b]pyridin-5-yloxy)benzamide]
183 nM		CC1(C)CCC(CN2CCN(c3ccc(C(=O)NS(=O)(=O)c4cnc(N[C@H]5CC[C@H](N6CCOCC6)CC5)c(C#N)c4)c(Oc4cnc5[nH]ccc5c4)c3)CC2)=C(c2ccc(Cl)cc2)C1 [Example 109, Trans-4-(4-{[2-(4-chlorophenyl)-4,4-dimethylcyclohex-1-en-1-yl]methyl}piperazin-1-yl)-N-({5-cyano-6-[(4-morpholin-4-ylcyclohexyl)amino]pyridin-3-yl}sulfonyl)-2-(1H-pyrrolo[2,3-b]pyridin-5-yloxy)benzamide]
5.89 nM		CC1(C)CCC(CN2CCN(c3ccc(C(=O)NS(=O)(=O)c4ccc(N[C@H]5CC[C@H](N6CCN(C7CCOCC7)CC6)CC5)c([N+](=O)[O-])c4)c(Oc4cnc5[nH]ccc5c4)c3)CC2)=C(c2ccc(Cl)cc2)C1 [Example 128, Trans-4-(4-{[2-(4-chlorophenyl)-4,4-dimethylcyclohex-1-en-1-yl]methyl}piperazin-1-yl)-N-[(3-nitro-4-{[4-(4-tetrahydro-2H-pyran-4-ylpiperazin-1-yl)cyclohexyl]amino}phenyl)sulfonyl]-2-(1H-pyrrolo[2,3-b]pyridin-5-yloxy)benzamide]
16.1 nM		CC1(C)CCC(CN2CCN(c3ccc(C(=O)NS(=O)(=O)c4ccc(NCCCNC5CC5)c([N+](=O)[O-])c4)c(Oc4cnc5[nH]ccc5c4)c3)CC2)=C(c2ccc(Cl)cc2)C1 [Example 291, 4-(4-{[2-(4-chlorophenyl)-4,4-dimethylcyclohex-1-en-1-yl]methyl}piperazin-1-yl)-N-[(4-{[3-(cyclopropylamino)propyl]amino}-3-nitrophenyl)sulfonyl]-2-(1H-pyrrolo[2,3-b]pyridin-5-yloxy)benzamide]
9.83 nM		CC1(C)CCC(CN2CCN(c3ccc(C(=O)NS(=O)(=O)c4ccc(OCC5CCOCC5)c([N+](=O)[O-])c4)c(Oc4cnc5[nH]ccc5c4)c3)CC2)=C(c2ccc(Cl)cc2)C1 [Example 24, 4-(4-{[2-(4-chlorophenyl)-4,4-dimethylcyclohex-1-en-1-yl]methyl}piperazin-1-yl)-N-{[3-nitro-4-(tetrahydro-2H-pyran-4-ylmethoxy)phenyl]sulfonyl}-2-(1H-pyrrolo[2,3-b]pyridin-5-yloxy)benzamide]
158 nM		CC1(C)CCC(CN2CCN(c3ccc(C(=O)NS(=O)(=O)c4cnc(OC5CCN(C6CCOCC6)CC5)c(C#N)c4)c(Oc4cnc5[nH]ccc5c4)c3)CC2)=C(c2ccc(Cl)cc2)C1 [Example 84, 4-(4-{[2-(4-chlorophenyl)-4,4-dimethylcyclohex-1-en-1-yl]methyl}piperazin-1-yl)-N-({5-cyano-6-[(1-tetrahydro-2H-pyran-4-ylpiperidin-4-yl)oxy]pyridin-3-yl}sulfonyl)-2-(1H-pyrrolo[2,3-b]pyridin-5-yloxy)benzamide]
9.38 nM		CC(=O)N1CCCC(CNc2ccc(S(=O)(=O)NC(=O)c3ccc(N4CCN(CC5=C(c6ccc(Cl)cc6)CC(C)(C)CC5)CC4)cc3Oc3cnc4[nH]ccc4c3)cc2[N+](=O)[O-])C1 (stereo not shown) [Example 148, N-[(4-{[(1-acetylpiperidin-3-yl)methyl]amino}-3-nitrophenyl)sulfonyl]-4-(4-{[2-(4-chlorophenyl)-4,4-dimethylcyclohex-1-en-1-yl]methyl}piperazin-1-yl)-2-(1H-pyrrolo[2,3-b]pyridin-5-yloxy)benzamide]
2.51 nM		CN1CCOC(CNc2ccc(S(=O)(=O)NC(=O)c3ccc(N4CCN(CC5=C(c6ccc(Cl)cc6)CC(C)(C)CC5)CC4)cc3Oc3cnc4[nH]ccc4c3)cc2[N+](=O)[O-])C1 (stereo not shown) [Example 134, 4-(4-{[2-(4-chlorophenyl)-4,4-dimethylcyclohex-1-en-1-yl]methyl}piperazin-1-yl)-N-[(4-{[(4-methylmorpholin-2-yl)methyl]amino}-3-nitrophenyl)sulfonyl]-2-(1H-pyrrolo[2,3-b]pyridin-5-yloxy)benzamide]
